Measured values as given in patent US20110311532A1, “INHIBITION OF COMPLEMENT AND CELLULAR ACTIVATION” (priority 2007, published 2011).
Positions of bridges follow the written chain, without caps; N, C: chain ends. Non-standard residues stand in square brackets, D forms with d. Residues, ends and D or L forms follow the SMILES beside them. hArg = N=C(N)NCCCC[C@H](N)C(=O)O; Mpa = O=C(O)CCS

B1: Abciximab (antibody, chains of the INN, looked up, V domains shown)
VH: EVQLQQSGTVLARPGASVKMSCEASGYTFTNYWMHWVKQRPGQGLEWIGAIYPGNSDTSYIQKFKGKAKLTAVTSTTSVYMELSSLTNEDSAVYYCTLYDGYYVFAYWGQGTLVTVSA
VL: EIVLTQSPVTLSVTPGDSVSLSCRASRDISNNLHWFQQTSHESPRLLIKYASQSMSGIPSRFSGSGSGTDFTLSINSVETEDFGMYFCQQTNSWPYTFGGGTKLEIK
modifications: Fab
notes: monoclonal F(ab) fragment GPIIb/IIIa antagonist

Tests used:
platelets = assay: Tubing loop model, platelet activation by flow cytometry (CD61/CD62P); type: cell-based, human; conditions: for effect on Fc mediated platelet activation (CD62P): anti-platelet agent at various concentrations with 400 μg/ml NM4047
Method: (§1) In the following examples, heparinized whole blood from a donor volunteer was circulated in a PVC tubing at 37° C. to allow complement and cellular activation. It is known that alternative complement pathway is activated when blood comes in contact with the artificial surface of the PVC tubing. As a result, complement is activated to release inflammatory molecules. These inflammatory molecules activate neutrophils, monocytes and platelets. The monoclonal antibody NM4047, inhibits complement activation in vitro in human serum. NM4047 inhibits C3a, C5a, and C5b-9 in whole blood in the tubing loop model. […] We attributed these findings to the Fc region on the IgG1. Removal of Fc domain with Ficin generated an F(ab′)2 molecule which inhibited C3a, C5a, C5b-9.
NM4047 is an IgG1 monoclonal antibody that was identified as a blocker of alternative complement pathway activation. The monoclonal antibody was evaluated for inhibition of complement and cellular activation in a whole blood based extracorporeal circulation model. In this model, whole heparinzed human blood was diluted with plasmalyte and circulated in a PVC tubing loop for 2 h at 37° C. to allow complement activation to occur. A total of 21 tubing loops were prepared. […] Nine tubing loops received 400 μg/ml concentration of NM4047 and the other nine received 100 μg/ml concentration of NM4047. Tubing loops were then rotated for 2 h at 37° C. Following the rotation, aliquots of the blood were stained for flow cytometry for the evaluation of cellular activation. A separate aliquot of blood was centrifuged to separate plasma, which was used for measuring complement activation products in ELISA. […] However, activation of neutrophils, monocytes, and platelets was not inhibited. Cellular activation was evaluated using flow cytometry methods. Aliquots of blood sample were stained with FITC labeled CD15 for neutrophils, FITC labeled CD14 for monocytes, and FITC labeled CD61 for Platelets. The cells were also stained with activation markers PE labeled CD11b for neutrophils and monocytes, and PE labeled CD62P for platelets. The staining was done in three groups, one group containing CD15/CD11b, second group contained CD14/CD11b, and the third group contained CD61/CD62P antibodies. Following staining, the cells were lysed with lysis buffer, centrifuged to pellet the cells. After a quick wash with 1% BSA/PBS, the cells were suspended in 1% paraformaldehyde buffer. Cell populations were read in the BD-LSR 1 and Cell Quest software. The raw data taken from Cell Quest were analyzed using Win List software from Verity, populations were measured using Ln Median shifts in the activation marker in the case of neutrophils and monocytes, and population percentage shifts for platelets. The data was then plotted on MicroCal Origin software. […] The lack of cellular inhibition could only be explained by the fact that the IgG1 had the Fc region. To determine if the predicted Fc is the cause of the observed cellular activation, IgG1 was digested with Ficin protease.
NM4047 (IgG1) monoclonal antibody was evaluated for inhibition of complement and cellular activation in a whole blood based extracorporeal circulation model in the presence of ReoPro. ReoPro is a GPIIbIIIa monoclonal antibody that binds resting and activated platelets. In this experiment, heparinzed human blood was diluted with plasmalyte and circulated in a PVC tubing loop for 2 h at 37° C. to allow complement activation to occur. A total of 21 tubing loops were prepared. […] Nine tubing loops received 400 μg/ml concentration of NM4047 and the other nine received 100 μg/ml concentration of NM4047. All samples other than controls received 10 μg/ml of ReoPro (clinical material). All tubing loops were then rotated for 2 h at 37° C. Following the rotation, aliquots of the blood were stained for flow cytometry for the evaluation of cellular activation. […]

monocytes = assay: Tubing loop model, monocyte activation by flow cytometry (CD14/CD11b); type: cell-based, human; conditions: anti-platelet agent in combination with NM4047
Method: as §1
(§2) NM4047 is an IgG1 monoclonal antibody that was identified as a blocker of alternative complement pathway activation. The monoclonal antibody was evaluated for inhibition of complement and cellular activation in a whole blood based extracorporeal circulation model. In this model, whole heparinzed human blood was diluted with plasmalyte and circulated in a PVC tubing loop for 2 h at 37° C. to allow complement activation to occur. A total of 21 tubing loops were prepared. […] Nine tubing loops received 400 μg/ml concentration of NM4047 and the other nine received 100 μg/ml concentration of NM4047. Tubing loops were then rotated for 2 h at 37° C. Following the rotation, aliquots of the blood were stained for flow cytometry for the evaluation of cellular activation. A separate aliquot of blood was centrifuged to separate plasma, which was used for measuring complement activation products in ELISA. […] Cellular activation was evaluated using flow cytometry methods. […] Cell populations were read in the BD-LSR 1 and Cell Quest software. The raw data taken from Cell Quest were analyzed using Win List software from Verity, populations were measured using Ln Median shifts in the activation marker in the case of neutrophils and monocytes, and population percentage shifts for platelets. […]

neutrophils = assay: Tubing loop model, neutrophil activation by flow cytometry (CD15/CD11b); type: cell-based, human; conditions: anti-platelet agent in combination with NM4047
Method: as §1, §2

complement activation = assay: Tubing loop model, overall complement activation or inhibition; type: biochemical, human; conditions: anti-platelet agent in combination with NM4047
Method: as §2, with “activation.” for “activation. A separate aliquot of blood was centrifuged to separate plasma, which was used for measuring complement activation products in ELISA.”
NM4047 (IgG1) monoclonal antibody was evaluated for inhibition of complement and cellular activation in a whole blood based extracorporeal circulation model in the presence of ReoPro. […] Cellular activation was evaluated using flow cytometry methods. […]

erythrocytes = assay: Hemolysis of erythrocytes in tubing loop experiments; type: cell-based, human; conditions: high concentration doses; tested at 5-50 μg/ml
Description: In this example, we evaluated the effects of Aspirin a commonly used inhibitor of platelet activation. Aspirin is also used as a standard of care for cardiac procedures. […] The tubing loop experiments presented in various examples above remained the same. The only difference was in the type of test agent used across these experiments. While good results were noticed with ReoPro and Aggrastat, the cost of such drugs may be prohibitive. In such cases, aspirin may become a viable option.

Molecule | total platelet activation (platelets; Integrillin 100 μg/ml with 400 μg/ml NM4047) | effect on Fc mediated platelet activation (CD62P) (platelets) | effect on monocyte activation (monocytes) | effect on neutrophil activation (neutrophils) | concentration achieving complete inhibition of platelet activation (platelets; with 400 μg/ml NM4047, 1 to 20 μg/ml tested) | effect on level of complement inhibition by NM4047 (complement activation) | hemolysis of erythrocytes (erythrocytes) | inhibition of platelet activation (platelets; ReoPro 10 μg/ml with NM4047 400 or 100 μg/ml) | platelet activation in samples containing IgG2 antibody (platelets; ReoPro together with IgG2 antibody) | concentration at which effect on platelet inhibition starts to vanish (platelets; with 400 μg/ml NM4047)
N=C(N)NCCCC[C@@H]1NC(=O)CCSSC[C@@H](C(N)=O)NC(=O)[C@@H]2CCCN2C(=O)[C@H](Cc2c[nH]c3ccccc23)NC(=O)[C@H](CC(=O)O)NC(=O)CNC1=O [Integrillin, Eptifibatide] ([Mpa][hArg]GDWPC-NH2; disulfide 1-7) | at least 4 fold | does not inhibit |  |  |  |  |  |  |  | 
CCCCS(=O)(=O)N[C@@H](Cc1ccc(OCCCCC2CCNCC2)cc1)C(=O)O [Aggrastat, Tirofiban] |  | highly potent | no effect | no effect | 1 µg/mL |  |  |  |  | 
CC(=O)Oc1ccccc1C(=O)O [Aspirin] |  | inhibits | only partial effect | only partial effect |  | did not alter | caused hemolysis |  |  | 
B1 |  | dose dependent | does not inhibit | does not inhibit |  | did not affect |  | ~100% | inhibited | 0.5 µg/mL
